# Measurements as given in ChEMBL document CHEMBL1240307, “A functional genomics approach to the mode of action of apratoxin A” (Nat Chem Biol, 2006).
# How the values were obtained:
# UACC-257 = assay: Cytotoxicity against human UACC257 cells by sulforhodamine B assay; type: functional
# HT-29 [1] = assay: Antitumor activity against human HT-29 cells assessed as upregulation of KCNK10 mRNA expression at 10 nM after 6 hrs relative to control; type: functional
# HT-29 [2] = assay: Antitumor activity against human HT-29 cells assessed as upregulation of KCNK10 mRNA expression at 2 nM after 12 hrs relative to control; type: functional
# U2OS [3] = assay: Cell cycle arrest in human U2OS cells assessed as accumulation at sub-G1 phase at 50 nM after 48 hrs by FACS analysis relative to control; type: functional
# U2OS [4] = assay: Cell cycle arrest in human U2OS cells assessed as accumulation at G1 phase at 5 nM after 24 hrs by FACS analysis (reference value: 49.8%); type: functional
# HT-29 [5] = assay: Antitumor activity against human HT-29 cells assessed as down-regulation of TAL1 mRNA expression at 2 nM after 6 hrs relative to control; type: functional
# HT-29 [6] = assay: Antitumor activity against human HT-29 cells assessed as down-regulation of RAB11B mRNA expression at 2 nM after 12 hrs relative to control; type: functional
# HT-29 [7] = assay: Antitumor activity against human HT-29 cells assessed as upregulation of MGC4504 mRNA expression at 2 nM after 12 hrs relative to control; type: functional
# U2OS [8] = assay: Cell cycle arrest in human U2OS cells assessed as accumulation at S phase at 50 nM after 48 hrs by FACS analysis (reference value: 37.3%); type: functional
# HT-29 [9] = assay: Antitumor activity against human HT-29 cells assessed as upregulation of KCNK10 mRNA expression at 2 nM after 6 hrs relative to control; type: functional
# U2OS [10] = assay: Cell cycle arrest in human U2OS cells assessed as accumulation at G1 phase at 50 nM after 48 hrs by FACS analysis (reference value: 49.8%); type: functional
# HT-29 [11] = assay: Antitumor activity against human HT-29 cells assessed as down-regulation of CCNE2 mRNA expression at 2 nM after 12 hrs relative to control; type: functional
# SNB-75 = assay: Cytotoxicity against human SNB75 cells by sulforhodamine B assay; type: functional
# HT-29 [12] = assay: Antitumor activity against human HT-29 cells assessed as down-regulation of GTSE1 mRNA expression at 10 nM after 12 hrs relative to control; type: functional
# HT-29 [13] = assay: Antitumor activity against human HT-29 cells assessed as down-regulation of CDC25A mRNA expression at 2 nM after 3 hrs relative to control; type: functional
# ACHN = assay: Cytotoxicity against human ACHN cells by sulforhodamine B assay; type: functional
# NCI-H522 = assay: Cytotoxicity against human NCI-H522 cells by sulforhodamine B assay; type: functional
# MDA-MB-435 = assay: Cytotoxicity against human MDA-MB-435 cells by sulforhodamine B assay; type: functional
# NCI-H23 = assay: Cytotoxicity against human NCI-H23 cells by sulforhodamine B assay; type: functional
# HT-29 [14] = assay: Antitumor activity against human HT-29 cells assessed as upregulation of RASSF4 mRNA expression at 2 nM after 12 hrs relative to control; type: functional
# HT-29 [15] = assay: Antitumor activity against human HT-29 cells assessed as upregulation of KCNK10 mRNA expression at 10 nM after 3 hrs relative to control; type: functional
# U2OS [16] = assay: Cell cycle arrest in human U2OS cells assessed as accumulation at S phase at 5 nM after 24 hrs by FACS analysis (reference value: 37.3%); type: functional
# LOX IMVI = assay: Cytotoxicity against human LOXIMVI cells by sulforhodamine B assay; type: functional
# SW-620 = assay: Cytotoxicity against human SW620 cells by sulforhodamine B assay; type: functional
# SK-MEL-2 = assay: Cytotoxicity against human SK-MEL-2 cells by sulforhodamine B assay; type: functional
# HT-29 [17] = assay: Antitumor activity against human HT-29 cells assessed as upregulation of HSPA1A mRNA expression at 10 nM after 6 hrs relative to control; type: functional
# COLO 205 = assay: Cytotoxicity against human COLO205 cells by sulforhodamine B assay; type: functional
# HT-29 [18] = assay: Antitumor activity against human HT-29 cells assessed as upregulation of DDIT4 mRNA expression at 2 nM after 12 hrs relative to control; type: functional
# UO-31 = assay: Cytotoxicity against human UO31 cells by sulforhodamine B assay; type: functional
# HT-29 [19] = assay: Antitumor activity against human HT-29 cells assessed as down-regulation of CDC25A mRNA expression at 10 nM after 12 hrs relative to control; type: functional
# HT-29 [20] = assay: Antitumor activity against human HT-29 cells assessed as down-regulation of GTSE1 mRNA expression at 2 nM after 6 hrs relative to control; type: functional
# HT-29 [21] = assay: Antitumor activity against human HT-29 cells assessed as upregulation of MGC4504 mRNA expression at 10 nM after 12 hrs relative to control; type: functional
# [22] = Cytotoxicity against human […] cells by sulforhodamine B assay; type: functional
# MDA-MB-231 = assay: Cytotoxicity against human MDA-MB-231 cells by sulforhodamine B assay; type: functional
# NCI/ADR-RES = assay: Cytotoxicity against human NCI/ADR-RES cells by sulforhodamine B assay; type: functional
# Malme-3M = assay: Cytotoxicity against human MALME-3M cells by sulforhodamine B assay; type: functional
# HT-29 [23] = assay: Antitumor activity against human HT-29 cells assessed as upregulation of MGC4504 mRNA expression at 2 nM after 6 hrs relative to control; type: functional
# T47D = assay: Cytotoxicity against human T47D cells by sulforhodamine B assay; type: functional
# SNB-19 = assay: Cytotoxicity against human SNB19 cells by sulforhodamine B assay; type: functional
# HOP-62 = assay: Cytotoxicity against human HOP62 cells by sulforhodamine B assay; type: functional
# HT-29 [24] = assay: Antitumor activity against human HT-29 cells assessed as upregulation of DDIT4 mRNA expression at 2 nM after 6 hrs relative to control; type: functional
# HT-29 [25] = assay: Antitumor activity against human HT-29 cells assessed as down-regulation of GTSE1 mRNA expression at 2 nM after 12 hrs relative to control; type: functional
# NCI-H322M = assay: Cytotoxicity against human NCI-H322M cells by sulforhodamine B assay; type: functional
# HT-29 [26] = assay: Antitumor activity against human HT-29 cells assessed as upregulation of RASSF4 mRNA expression at 10 nM after 3 hrs relative to control; type: functional
# OVCAR-8 = assay: Cytotoxicity against human OVCAR8 cells by sulforhodamine B assay; type: functional
# OVCAR-5 = assay: Cytotoxicity against human OVCAR5 cells by sulforhodamine B assay; type: functional
# U2OS [27] = assay: Cell cycle arrest in human U2OS cells assessed as accumulation at S phase at 5 nM after 48 hrs by FACS analysis (reference value: 37.3%); type: functional
# [28] = Cytotoxicity against resting human CD4+ T cell assessed as cell viability after 3 days by fluorescence detection method; type: cell-based; conditions: 72 h
# HCT-15 = assay: Cytotoxicity against human HCT15 cells by sulforhodamine B assay; type: functional
# [29] = read-out: LC50 (the source's name)
smiles,measurement,setting,value
CC[C@H](C)[C@H]1C(=O)N2CCC[C@H]2C(=O)O[C@H](C(C)(C)C)C[C@@H](C)C[C@H](O)[C@H](C)C2=N[C@@H](/C=C(\C)C(=O)N[C@@H](Cc3ccc(OC)cc3)C(=O)N(C)[C@@H](C)C(=O)N1C)CS2 [APRATOXIN A],GI50,UACC-257,7.15 nM
same,fold change (FC),HT-29 [1],7.38
same,fold change (FC),HT-29 [2],<=2
same,inhibition at 0.05 µM,U2OS [3],42.7%
same,inhibition at 0.005 µM,U2OS [4],61.6%
same,fold change (FC),HT-29 [5],<=2
same,fold change (FC),HT-29 [6],<=2
same,fold change (FC),HT-29 [7],5.19
same,inhibition at 0.05 µM,U2OS [8],0.8%
same,fold change (FC),HT-29 [9],6.35
same,inhibition at 0.05 µM,U2OS [10],50.2%
same,fold change (FC),HT-29 [11],<=2
same,GI50,SNB-75,1.96 nM
same,fold change (FC),HT-29 [12],-2.35
same,fold change (FC),HT-29 [13],<=2
same,GI50,ACHN,2.69 nM
same,GI50,NCI-H522,6.03 nM
same,GI50,MDA-MB-435,3.35 nM
same,GI50,NCI-H23,8.23 nM
same,fold change (FC),HT-29 [14],<=2
same,fold change (FC),HT-29 [15],10.01
same,inhibition at 0.005 µM,U2OS [16],28.2%
same,GI50,LOX IMVI,2.3 nM
same,CC50,LOX IMVI; [29],23.2 nM
same,GI50,SW-620,3.16 nM
same,GI50,SK-MEL-2,> 100 nM
same,fold change (FC),HT-29 [17],2.68
same,GI50,COLO 205,2.71 nM
same,fold change (FC),HT-29 [18],3.78
same,GI50,UO-31,2.95 nM
same,fold change (FC),HT-29 [19],-2.79
same,fold change (FC),HT-29 [20],<=2
same,fold change (FC),HT-29 [21],12.09
same,GI50,[22],1.28 nM
same,CC50,[22]; [29],69 nM
same,GI50,MDA-MB-231,1.46 nM
same,GI50,NCI/ADR-RES,15.3 nM
same,GI50,Malme-3M,4.77 nM
same,fold change (FC),HT-29 [23],7.57
same,GI50,T47D,3.63 nM
same,GI50,SNB-19,7 nM
same,GI50,HOP-62,7.68 nM
same,fold change (FC),HT-29 [24],10.37
same,fold change (FC),HT-29 [25],<=2
same,GI50,NCI-H322M,3.99 nM
same,fold change (FC),HT-29 [26],<=2
same,GI50,OVCAR-8,7.26 nM
same,GI50,OVCAR-5,> 100 nM
same,inhibition at 0.005 µM,U2OS [27],5.5%
same,IC50,[28],1800 nM
same,GI50,HCT-15,4.29 nM
